Data on 11 compounds can be found in BindingDB's records for doi:10.1016/S0960-894X(97)00311-9 (n/a, 1997).

The IC50 is the midpoint of a concentration-inhibition curve. High values mean weaker potency, low ones greater potency.

The test is described as follows: Inhibition of human platelet aggregation.

With `CC(C)[C@H](NC(=O)[C@H](CC(=O)O)NC(=O)CNC(=O)C=Cc1ccc(N=C(N)N)cc1)C(=O)O` [(S)-2-((S)-3-Carboxy-2-{2-[(E)-3-(4-guanidino-phenyl)-acryloylamino]-acetylamino}-propionylamino)-3-methyl-butyric acid], inhibition was half-maximal at 6600 nM (IC50).
The figure for `CC(C)[C@H](NC(=O)[C@H](CC(=O)O)NC(=O)CCNC(=O)C=Cc1ccc(N=C(N)N)cc1)C(=O)O` [(S)-2-((S)-3-Carboxy-2-{3-[(E)-3-(4-guanidino-phenyl)-acryloylamino]-propionylamino}-propionylamino)-3-methyl-butyric acid] is 2000 nM.
The figure for `CC(C)[C@H](NC(=O)[C@H](CC(=O)O)NC(=O)C[C@H]1CCCN1C(=O)C=Cc1ccc(N=C(N)N)cc1)C(=O)O` [(S)-2-[(S)-3-Carboxy-2-(2-{(R)-1-[(E)-3-(4-guanidino-phenyl)-acryloyl]-pyrrolidin-2-yl}-acetylamino)-propionylamino]-3-methyl-butyric acid] is 25000 nM; for `CC(C)[C@H](NC(=O)[C@H](CC(=O)O)NC(=O)C[C@@H]1CCCCN1C(=O)C=Cc1ccc(N=C(N)N)cc1)C(=O)O` [(S)-2-[(S)-3-Carboxy-2-(2-{(S)-1-[(E)-3-(4-guanidino-phenyl)-acryloyl]-piperidin-2-yl}-acetylamino)-propionylamino]-3-methyl-butyric acid] it is 1600 nM.
In the case of `CC(C)[C@H](NC(=O)[C@H](CC(=O)O)NC(=O)C[C@@H]1CCCN1C(=O)C=Cc1ccc(N=C(N)N)cc1)C(=O)O` [(S)-2-[(S)-3-Carboxy-2-(2-{(S)-1-[(E)-3-(4-guanidino-phenyl)-acryloyl]-pyrrolidin-2-yl}-acetylamino)-propionylamino]-3-methyl-butyric acid], it took 96 nM to reach half-maximal inhibition (IC50).
As for `CC(C)[C@H](NC(=O)[C@H](CC(=O)O)NC(=O)CCN(C)C(=O)C=Cc1ccc(N=C(N)N)cc1)C(=O)O` [(S)-2-[(S)-3-Carboxy-2-(3-{[(E)-3-(4-guanidino-phenyl)-acryloyl]-methyl-amino}-propionylamino)-propionylamino]-3-methyl-butyric acid], the IC50 came out at 500 nM.
The figure for `CCN(CCC(=O)N[C@@H](CC(=O)O)C(=O)N[C@H](C(=O)O)C(C)C)C(=O)C=Cc1ccc(N=C(N)N)cc1` [(S)-2-[(S)-3-Carboxy-2-(3-{ethyl-[(E)-3-(4-guanidino-phenyl)-acryloyl]-amino}-propionylamino)-propionylamino]-3-methyl-butyric acid] is 410 nM; for `CC(C)[C@H](NC(=O)[C@H](CC(=O)O)NC(=O)[C@@H]1CCCN(C(=O)C=Cc2ccc(N=C(N)N)cc2)C1)C(=O)O` [(S)-2-[(S)-3-Carboxy-2-({(R)-1-[(E)-3-(4-guanidino-phenyl)-acryloyl]-piperidine-3-carbonyl}-amino)-propionylamino]-3-methyl-butyric acid] it is 180 nM.
For `CC(C)[C@H](NC(=O)[C@H](CC(=O)O)NC(=O)[C@@H]1CCN(C(=O)C=Cc2ccc(N=C(N)N)cc2)C1)C(=O)O` [(S)-2-[(S)-3-Carboxy-2-({(R)-1-[(E)-3-(4-guanidino-phenyl)-acryloyl]-pyrrolidine-3-carbonyl}-amino)-propionylamino]-3-methyl-butyric acid], inhibition was half-maximal at 65 nM (IC50).
`CC(C)[C@H](NC(=O)[C@H](CC(=O)O)NC(=O)[C@H]1CCCN(C(=O)C=Cc2ccc(N=C(N)N)cc2)C1)C(=O)O` [(S)-2-[(S)-3-Carboxy-2-({(S)-1-[(E)-3-(4-guanidino-phenyl)-acryloyl]-piperidine-3-carbonyl}-amino)-propionylamino]-3-methyl-butyric acid]: the half-maximal inhibitory concentration (IC50) was found to be 620 nM.
The figure for `CC(C)[C@H](NC(=O)[C@H](CC(=O)O)NC(=O)[C@H]1CCN(C(=O)C=Cc2ccc(N=C(N)N)cc2)C1)C(=O)O` [(S)-2-[(S)-3-Carboxy-2-({(S)-1-[(E)-3-(4-guanidino-phenyl)-acryloyl]-pyrrolidine-3-carbonyl}-amino)-propionylamino]-3-methyl-butyric acid] is 3300 nM.
